In patent US10117919B2, “Methods and materials for generating CD8+ T cells having the ability to recognize cancer cells expressing a HER2/neu polypeptide” (Mayo Foundation for Medical Education and Research, priority 2012, dated 2018):

What was measured:
immunoproteasome = assay: In vitro cleavage of HER-2/neu 19-mer by purified immunoproteasome; assay type: biochemical; conditions: from HER-2/neu 19-mer (364-382)
Procedure: (§1) The following was performed to determine if E75 is processed from HER-2/neu or HER-2/neu fragments by multi-subunit enzymes referred to as the proteasome and immunoproteasome, which are required for loading of polypeptide onto MHC class I molecules. […] (SEQ ID NO:3), was synthesized. […] The 19-mer was then cleaved using purified 20S proteasome and immunoproteasome.

20S proteasome = assay: In vitro cleavage of HER-2/neu 19-mer by purified 20S proteasome; assay type: biochemical; conditions: from HER-2/neu 19-mer (364-382)
Procedure: as §1

[1] = tested on: 20S proteasome and immunoproteasome; assay: Processing of longer HER-2/neu polypeptides (19-mer, 23-mer) treated with the proteasomes; assay type: biochemical
Procedure: as §1

[2] = tested on: target cells pulsed with polypeptide; assay: IFN-γ ELIspot of polypeptide-generated CD8+ T cell lines against polypeptide-pulsed target cells; assay type: cell-based, human
[3] = tested on: breast cancer cell lines that express varying levels of HER-2/neu; assay type: cell-based, human
breast cancer cell lines = assay: Cytotoxic T cell assay: lysis of breast cancer cells by polypeptide-generated CD8+ T cells; assay type: cell-based, human; conditions: compared to CD8+ T cells generated using p369-377
Procedure: Another in vitro assay was performed to measure lysis of the breast cancer cells by the T cells.

[4] = tested on: HLA-A2 / HLA-ABC restricted T cell reactivity; assay: IFN-γ release of generated T cells in presence of neutralizing HLA-A2 or HLA-ABC antibodies; assay type: cell-based, human; conditions: versus control isotype matched antibody
tumor cells = assay: Tumor cell lysis by generated T cells in presence of neutralizing HLA-A2 or HLA-ABC antibodies; assay type: cell-based, human

Sequence | Peptide generated by immunoproteasome (immunoproteasome) | Peptide generated by proteasome (20S proteasome) | further results
AFLPESFD (homo sapiens) | + | + | 
FAGCKKIFGS (homo sapiens) | + | + | 
FAGCKKIFGSL (homo sapiens) [HER-2/neu amino acids 364-374] | + | + | 
FAGCKKIFGSLAFLPESFD (homo sapiens) [19-mer polypeptide, substrate of the cleavage assay] |  |  | Processing by purified 20S proteasome and immunoproteasome ([1]; 19-mer FAGCKKIFGSLAFLPESFD as substrate): consistently found to be processed into several other shorter polypeptides
FGSLAFLPES (homo sapiens) [HER-2/neu amino acids 371-380] | + | + | 
FGSLAFLPESF (homo sapiens) [HER-2/neu amino acids 371-381] | + | + | 
GSLAFLPESF (homo sapiens) [HER-2/neu amino acids 372-381] | + | + | 
GSLAFLPESFD (homo sapiens) | + | + | 
LAFLPESFD (homo sapiens) | + | + | 
SLAFLPESF (homo sapiens) | + | + | 
SLAFLPESFD (homo sapiens) | + | + | Release from 23-mer treated with the proteasomes ([1]; 23-mer containing p373-382 as substrate): released from the 23-mer; Recognition of polypeptide-pulsed target cells by T cells generated with the polypeptide [2]: recognized target cells pulsed with either the p373-382 polypeptide or the p369-377 polypeptide; Recognition of breast cancer cells by CD8+ T cells generated with the polypeptide [3]: able to recognize the breast cancer cells at much higher levels; Lysis of breast cancer cell lines by CD8+ T cells generated with the polypeptide (breast cancer cell lines): recognized and lysed all tested breast cancer cell lines at much higher levels; Reactivity (IFN-γ release) of generated T cells with neutralizing HLA-A2 or HLA-ABC antibody [4]: markedly suppressed; Lysis of tumor cells by generated T cells with neutralizing HLA-A2 or HLA-ABC antibody (tumor cells): blocked lysis of tumor cells
